Values of other authors as cited in patent US7579333B2 (Teva Pharmaceutical Industries Ltd., priority 2004, dated 2009).

How the values were obtained:
[1] = in vivo
[2] = test system: femoral bone mass density; conditions: 1 year; 60 mg/day raloxifene, 10 mg/day alendronate; 331 patients
[3] = test system: new vertebral fractures; conditions: post-menopausal women with osteoporosis

pH at which best absorbed [1]	SMILES	improvement in femoral bone mass density [2] [%]	decrease in incidence of new vertebral fractures [3]
~6	NCCCC(O)(P(=O)(O)O)P(=O)(O)O [alendronate]		
	O=C(c1ccc(OCCN2CCCCC2)cc1)c1c(-c2ccc(O)cc2)sc2cc(O)ccc12 [raloxifene]	1.7	30-50%
